In ChEMBL document CHEMBL1201862, “PubChem BioAssay data set” (2004):
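Cultured in 96-well plates, cells were exposed to test compound for 48 hours across five concentrations. Abbreviation: GI50, concentration required for 50% inhibition of growth.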 The source made the active and inactive calls. Rule as the data show it: active = GI50 up to about 1.1 µM and inactive = higher. Square brackets hold non-standard residues; d marks the D form. Peptide text beside a SMILES is read from it. * marks the point of attachment. ξ: configuration not given here. ξD = NC(CC(=O)O)C(=O)O; Ac3c = NC1(C(=O)O)CC1; Boc = CC(C)(C)OC(=O)*; OtBu = CC(C)(C)O*

Experiments:
Assay in all cases: NCI-60 cell line screen, 48 h
SK-MEL-2 = tested on: SK-MEL-2
Hs-578T = tested on: Hs-578T
CAKI-1 = tested on: CAKI-1
HT-29 = tested on: HT-29
KM12 = tested on: KM12
NCI-H460 = tested on: NCI-H460
U-251 = tested on: U-251
SR = tested on: SR
OVCAR-5 = tested on: OVCAR-5
UACC-62 = tested on: UACC-62
ACHN = tested on: ACHN
K562 = tested on: K562
IGROV-1 = tested on: IGROV-1
SN12C = tested on: SN12C
SF-295 = tested on: SF-295
BT-549 = tested on: BT-549
TK-10 = tested on: TK-10
SK-MEL-28 = tested on: SK-MEL-28
HOP-92 = tested on: HOP-92

SMILES	GI50 (SK-MEL-2)	GI50 (Hs-578T)	GI50 (CAKI-1)	GI50 (HT-29)	GI50 (KM12)	GI50 (NCI-H460)	GI50 (U-251)	GI50 (SR)	GI50 (OVCAR-5)	GI50 (UACC-62)	GI50 (ACHN)	GI50 (K562)	GI50 (IGROV-1)	GI50 (SN12C)	GI50 (SF-295)	GI50 (BT-549)	GI50 (TK-10)	GI50 (SK-MEL-28)	GI50 (HOP-92)
O=C(O)c1cc(CCc2ccc(O)c(O)c2)ccc1O	> 100 µM (inactive)	> 100 µM (inactive)	> 100 µM (inactive)	> 100 µM (inactive)	> 100 µM (inactive)	> 100 µM (inactive)	> 100 µM (inactive)	24.4 µM (inactive)	> 100 µM (inactive)	> 100 µM (inactive)	> 100 µM (inactive)	21.3 µM (inactive)	> 100 µM (inactive)	> 100 µM (inactive)	> 100 µM (inactive)	> 100 µM (inactive)			
COc1cc(OCc2ccc3oc(=O)c(-c4ccccc4)nc3c2)cc(OC)c1OC	> 100 µM (inactive)	> 100 µM (inactive)		> 100 µM (inactive)		> 100 µM (inactive)	> 100 µM (inactive)	> 100 µM (inactive)	> 100 µM (inactive)	> 100 µM (inactive)	> 100 µM (inactive)	> 100 µM (inactive)	> 100 µM (inactive)	> 100 µM (inactive)	> 100 µM (inactive)	> 100 µM (inactive)	> 100 µM (inactive)	> 100 µM (inactive)	
CC(=O)N(C(C)=O)n1nc2c(n1)C(=O)c1ccccc1C2=O	> 100 µM (inactive)	> 100 µM (inactive)	> 100 µM (inactive)	> 100 µM (inactive)	> 100 µM (inactive)	> 100 µM (inactive)	> 100 µM (inactive)		> 100 µM (inactive)	> 100 µM (inactive)	> 100 µM (inactive)		> 100 µM (inactive)	> 100 µM (inactive)	> 100 µM (inactive)	> 100 µM (inactive)	> 100 µM (inactive)	> 100 µM (inactive)	> 100 µM (inactive)
O=c1[nH]nc(Cn2c3ccc(Br)cc3c3nc4ccccc4nc32)n1C1CCCCC1	60.7 µM (inactive)		> 100 µM (inactive)	36.1 µM (inactive)	54 µM (inactive)	29.4 µM (inactive)	30.5 µM (inactive)	2.08 µM (inactive)	34.2 µM (inactive)	21.5 µM (inactive)	> 100 µM (inactive)	20.7 µM (inactive)	> 100 µM (inactive)	> 100 µM (inactive)	32.7 µM (inactive)	42.3 µM (inactive)	29.8 µM (inactive)	19.3 µM (inactive)	46.3 µM (inactive)
Nc1nc(Cl)c(/N=N/c2ccc(Cl)cc2)c(NCC2(CO)CCC(CCc3ccccc3)C2)n1 (stereo not given)	13.6 µM (inactive)	8.51 µM (inactive)	2.8 µM (inactive)	12.1 µM (inactive)	13.2 µM (inactive)	12.7 µM (inactive)	14.1 µM (inactive)		15.4 µM (inactive)	10.4 µM (inactive)	5.97 µM (inactive)	0.841 µM (active)	6.22 µM (inactive)	9.46 µM (inactive)	11 µM (inactive)	6.81 µM (inactive)	13.8 µM (inactive)	14.2 µM (inactive)	11.1 µM (inactive)
NC(=O)NNCc1ccccc1	> 100 µM (inactive)	> 100 µM (inactive)	> 100 µM (inactive)	> 100 µM (inactive)	> 100 µM (inactive)	> 100 µM (inactive)	> 100 µM (inactive)		> 100 µM (inactive)	> 100 µM (inactive)	> 100 µM (inactive)	> 100 µM (inactive)	> 100 µM (inactive)	> 100 µM (inactive)	> 100 µM (inactive)	> 100 µM (inactive)	> 100 µM (inactive)		51.5 µM (inactive)
CC(=O)CC1=C(OC(C)C)C2(OCCO2)C1O (stereo not given)	> 100 µM (inactive)	> 100 µM (inactive)	> 100 µM (inactive)	> 100 µM (inactive)	> 100 µM (inactive)	> 100 µM (inactive)	> 100 µM (inactive)		> 100 µM (inactive)	> 100 µM (inactive)	> 100 µM (inactive)		> 100 µM (inactive)	> 100 µM (inactive)	> 100 µM (inactive)	> 100 µM (inactive)	> 100 µM (inactive)	> 100 µM (inactive)	> 100 µM (inactive)
NC1CCCCC1.O=P(O)(O)C(O)/C=C/c1ccccc1 (stereo not given)	> 100 µM (inactive)	> 100 µM (inactive)	> 100 µM (inactive)	> 100 µM (inactive)	> 100 µM (inactive)	> 100 µM (inactive)	> 100 µM (inactive)		> 100 µM (inactive)	> 100 µM (inactive)	> 100 µM (inactive)	> 100 µM (inactive)	> 100 µM (inactive)	> 100 µM (inactive)	> 100 µM (inactive)	> 100 µM (inactive)	> 100 µM (inactive)	> 100 µM (inactive)	> 100 µM (inactive)
S=C(Nc1ccc(Br)cn1)NC12CC3CC(CC(C3)C1)C2	22.3 µM (inactive)		35.9 µM (inactive)		> 100 µM (inactive)	28.5 µM (inactive)	11.3 µM (inactive)	36.1 µM (inactive)	17.5 µM (inactive)	17.5 µM (inactive)	13.2 µM (inactive)	> 100 µM (inactive)	8.59 µM (inactive)		17 µM (inactive)	> 10 µM (inactive)		39 µM (inactive)	7.18 µM (inactive)
COC(=O)Nc1nc2cc(NS(=O)(=O)c3ccc(Cl)cc3)ccc2[nH]1	6.37 µM (inactive)	1.99 µM (inactive)	3.78 µM (inactive)	4.26 µM (inactive)	3.61 µM (inactive)	5.98 µM (inactive)	12.2 µM (inactive)		17.9 µM (inactive)	6.71 µM (inactive)	14.2 µM (inactive)	6.3 µM (inactive)	2.59 µM (inactive)	16.3 µM (inactive)	4.45 µM (inactive)	13.4 µM (inactive)	2.7 µM (inactive)	6.79 µM (inactive)	1.84 µM (inactive)
Oc1ccc(Cl)cc1C1=NC(NCNC2=NC(c3ccccc3)CC(c3cc(Cl)ccc3O)=N2)=NC(c2ccccc2)C1 (stereo not given)	> 100 µM (inactive)		94.2 µM (inactive)	70.8 µM (inactive)	> 100 µM (inactive)	87.1 µM (inactive)	> 100 µM (inactive)	24.9 µM (inactive)	44.1 µM (inactive)	> 100 µM (inactive)	43.6 µM (inactive)	39 µM (inactive)	61.2 µM (inactive)		79.1 µM (inactive)	> 100 µM (inactive)	> 100 µM (inactive)	> 100 µM (inactive)	> 100 µM (inactive)
c1ccc(/N=C2\c3ccccc3CN2c2ccccn2)nc1	> 100 µM (inactive)	> 100 µM (inactive)	> 100 µM (inactive)	34.2 µM (inactive)	> 100 µM (inactive)	89.3 µM (inactive)	> 100 µM (inactive)		> 100 µM (inactive)	> 100 µM (inactive)	> 100 µM (inactive)	65 µM (inactive)	> 100 µM (inactive)	> 100 µM (inactive)	> 100 µM (inactive)	> 100 µM (inactive)	> 100 µM (inactive)	> 100 µM (inactive)	15.7 µM (inactive)
COc1cc(O)c2c(=O)cc(C3(OC(C)=O)C=CC(OC4OC(CO)C(O)C(O)C4O)C=C3)oc2c1 (stereo not given)	> 100 µM (inactive)		> 100 µM (inactive)	> 100 µM (inactive)	> 100 µM (inactive)	> 100 µM (inactive)	> 100 µM (inactive)	> 100 µM (inactive)	> 100 µM (inactive)	> 100 µM (inactive)	> 100 µM (inactive)	> 100 µM (inactive)	> 100 µM (inactive)	> 100 µM (inactive)	> 100 µM (inactive)	> 100 µM (inactive)	> 100 µM (inactive)	> 100 µM (inactive)	> 100 µM (inactive)
CCCCC(C(=O)NCCNC(=O)CCC(=O)N(C)O)C(=O)NCCNC(=O)CCC(=O)N(C)O	> 100 µM (inactive)		> 100 µM (inactive)	> 100 µM (inactive)	> 100 µM (inactive)	> 100 µM (inactive)	> 100 µM (inactive)	> 100 µM (inactive)	> 100 µM (inactive)	> 100 µM (inactive)	> 100 µM (inactive)	> 100 µM (inactive)	> 100 µM (inactive)	> 100 µM (inactive)	> 100 µM (inactive)	> 100 µM (inactive)	> 100 µM (inactive)	> 100 µM (inactive)	> 100 µM (inactive)
C=C(C)CC1(O)C(=O)C(OCC)=C1OCC (stereo not given)	> 100 µM (inactive)	> 100 µM (inactive)	> 100 µM (inactive)	> 100 µM (inactive)	> 100 µM (inactive)	> 100 µM (inactive)	> 100 µM (inactive)		> 100 µM (inactive)	> 100 µM (inactive)	> 100 µM (inactive)		> 100 µM (inactive)	> 100 µM (inactive)	> 100 µM (inactive)	> 100 µM (inactive)	> 100 µM (inactive)	> 100 µM (inactive)	48.6 µM (inactive)
COC(=O)C1(NC(=O)C(CC(=O)OC(C)(C)C)NC(=O)OC(C)(C)C)CC1 (stereo not given) (Boc-[ξD](OtBu)-[Ac3c]-OMe)	> 100 µM (inactive)	> 100 µM (inactive)	> 100 µM (inactive)	> 100 µM (inactive)	> 100 µM (inactive)	> 100 µM (inactive)	> 100 µM (inactive)		> 100 µM (inactive)	1.19 µM (inactive)	> 100 µM (inactive)	> 100 µM (inactive)	> 100 µM (inactive)	> 100 µM (inactive)	> 100 µM (inactive)	> 100 µM (inactive)	> 100 µM (inactive)	> 100 µM (inactive)	
